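How tested: cells in 96-well plates exposed to compound for 48 hours at five concentrations. TGI: total growth inhibition.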
Assays:
Assay in all cases: growth of human tumour cells (NCI), 48 h
U251 CNS = tested on: U251 CNS
HT29 colon = tested on: HT29 colon
SK-MEL-5 melanoma = tested on: SK-MEL-5 melanoma
LOX IMVI melanoma = tested on: LOX IMVI melanoma
UO-31 renal = tested on: UO-31 renal
RPMI-8226 leukemia = tested on: RPMI-8226 leukemia
SK-MEL-28 melanoma = tested on: SK-MEL-28 melanoma
SF-268 CNS = tested on: SF-268 CNS
BT-549 breast = tested on: BT-549 breast
A498 renal = tested on: A498 renal
HL-60(TB) leukemia = tested on: HL-60(TB) leukemia
SF-539 CNS = tested on: SF-539 CNS
NCI/ADR-RES ovarian = tested on: NCI/ADR-RES ovarian
SK-OV-3 ovarian = tested on: SK-OV-3 ovarian
HOP-92 NSCLC = tested on: HOP-92 NSCLC
K-562 leukemia = tested on: K-562 leukemia
SR leukemia = tested on: SR leukemia
A549 NSCLC = tested on: A549 NSCLC
NCI-H522 lung = tested on: NCI-H522 lung
IGROV1 ovarian = tested on: IGROV1 ovarian
OVCAR-4 ovarian = tested on: OVCAR-4 ovarian
MDA-N = tested on: MDA-N
UACC-62 melanoma = tested on: UACC-62 melanoma
M14 melanoma = tested on: M14 melanoma
PC-3 prostate = tested on: PC-3 prostate
OVCAR-3 ovarian = tested on: OVCAR-3 ovarian
SK-MEL-2 melanoma = tested on: SK-MEL-2 melanoma
OVCAR-5 ovarian = tested on: OVCAR-5 ovarian
SNB-75 CNS = tested on: SNB-75 CNS
MOLT-4 leukemia = tested on: MOLT-4 leukemia
KM12 colon = tested on: KM12 colon
COLO 205 colon = tested on: COLO 205 colon
DU-145 prostate = tested on: DU-145 prostate
NCI-H23 lung = tested on: NCI-H23 lung
ACHN renal = tested on: ACHN renal
HCC-2998 colon = tested on: HCC-2998 colon
SW-620 colon = tested on: SW-620 colon
CAKI-1 renal = tested on: CAKI-1 renal
SNB-19 CNS = tested on: SNB-19 CNS
HS 578T breast = tested on: HS 578T breast
MDA-MB-435 = tested on: MDA-MB-435
UACC-257 melanoma = tested on: UACC-257 melanoma
MALME-3M melanoma = tested on: MALME-3M melanoma
786-0 renal = tested on: 786-0 renal
MCF7 breast = tested on: MCF7 breast
EKVX NSCLC = tested on: EKVX NSCLC
NCI-H226 lung = tested on: NCI-H226 lung
TK-10 renal = tested on: TK-10 renal
HCT-15 colon = tested on: HCT-15 colon
HCT-116 colon = tested on: HCT-116 colon
CCRF-CEM leukemia = tested on: CCRF-CEM leukemia
MDA-MB-231 breast = tested on: MDA-MB-231 breast
OVCAR-8 ovarian = tested on: OVCAR-8 ovarian
RXF 393 renal = tested on: RXF 393 renal
T-47D breast = tested on: T-47D breast
SN12C renal = tested on: SN12C renal
SF-295 CNS = tested on: SF-295 CNS
HOP-62 NSCLC = tested on: HOP-62 NSCLC
NCI-H460 lung = tested on: NCI-H460 lung

O=C(Cc1ccccc1)N/N=C(/CCN1CCCC1)CC(c1ccccc1)c1c(O)c2ccccc2oc1=O (stereo not drawn)
TGI (U251 CNS): > 100 µM
TGI (HT29 colon): > 100 µM
TGI (SK-MEL-5 melanoma): > 100 µM
TGI (LOX IMVI melanoma): 44.4 µM
TGI (UO-31 renal): > 100 µM
TGI (RPMI-8226 leukemia): > 100 µM
TGI (SK-MEL-28 melanoma): > 100 µM
TGI (SF-268 CNS): > 100 µM
TGI (BT-549 breast): > 100 µM
TGI (A498 renal): > 100 µM
TGI (HL-60(TB) leukemia): > 100 µM
TGI (SF-539 CNS): > 100 µM
TGI (NCI/ADR-RES ovarian): > 100 µM
TGI (SK-OV-3 ovarian): > 100 µM
TGI (HOP-92 NSCLC): > 100 µM
TGI (K-562 leukemia): > 100 µM
TGI (SR leukemia): > 100 µM
TGI (A549 NSCLC): > 100 µM
TGI (NCI-H522 lung): > 100 µM
TGI (IGROV1 ovarian): > 100 µM
TGI (OVCAR-4 ovarian): > 100 µM
TGI (MDA-N): > 100 µM
TGI (UACC-62 melanoma): > 100 µM
TGI (M14 melanoma): > 100 µM
TGI (PC-3 prostate): > 100 µM
TGI (OVCAR-3 ovarian): > 100 µM
TGI (SK-MEL-2 melanoma): > 100 µM
TGI (OVCAR-5 ovarian): > 100 µM
TGI (SNB-75 CNS): > 100 µM
TGI (MOLT-4 leukemia): > 100 µM
TGI (KM12 colon): > 100 µM
TGI (COLO 205 colon): 57.5 µM
TGI (DU-145 prostate): > 100 µM
TGI (NCI-H23 lung): > 100 µM
TGI (ACHN renal): > 100 µM
TGI (HCC-2998 colon): > 100 µM
TGI (SW-620 colon): > 100 µM
TGI (CAKI-1 renal): > 100 µM
TGI (SNB-19 CNS): > 100 µM
TGI (HS 578T breast): > 100 µM
TGI (MDA-MB-435): > 100 µM
TGI (UACC-257 melanoma): > 100 µM
TGI (MALME-3M melanoma): > 100 µM
TGI (786-0 renal): > 100 µM
TGI (MCF7 breast): > 100 µM
TGI (EKVX NSCLC): > 100 µM
TGI (NCI-H226 lung): > 100 µM
TGI (TK-10 renal): > 100 µM
TGI (HCT-15 colon): > 100 µM
TGI (HCT-116 colon): > 100 µM
TGI (CCRF-CEM leukemia): > 100 µM
TGI (MDA-MB-231 breast): > 100 µM
TGI (OVCAR-8 ovarian): > 100 µM

CCCCCCC(N)(CCCCCC)C(=O)Nn1c(C)ccc1C
TGI (U251 CNS): > 100 µM
TGI (HT29 colon): > 100 µM
TGI (RXF 393 renal): > 100 µM
TGI (SK-MEL-5 melanoma): > 100 µM
TGI (UO-31 renal): > 100 µM
TGI (RPMI-8226 leukemia): > 100 µM
TGI (SK-MEL-28 melanoma): > 100 µM
TGI (SF-268 CNS): > 100 µM
TGI (T-47D breast): > 100 µM
TGI (BT-549 breast): > 100 µM
TGI (A498 renal): > 100 µM
TGI (HL-60(TB) leukemia): > 100 µM
TGI (NCI/ADR-RES ovarian): > 100 µM
TGI (SK-OV-3 ovarian): > 100 µM
TGI (K-562 leukemia): > 100 µM
TGI (SR leukemia): > 100 µM
TGI (SN12C renal): > 100 µM
TGI (A549 NSCLC): 65.3 µM
TGI (NCI-H522 lung): > 100 µM
TGI (IGROV1 ovarian): > 100 µM
TGI (OVCAR-4 ovarian): > 100 µM
TGI (MDA-N): > 100 µM
TGI (SF-295 CNS): > 100 µM
TGI (UACC-62 melanoma): > 100 µM
TGI (M14 melanoma): > 100 µM
TGI (PC-3 prostate): > 100 µM
TGI (OVCAR-3 ovarian): > 100 µM
TGI (SK-MEL-2 melanoma): > 100 µM
TGI (HOP-62 NSCLC): > 100 µM
TGI (OVCAR-5 ovarian): > 100 µM
TGI (SNB-75 CNS): > 100 µM
TGI (MOLT-4 leukemia): > 100 µM
TGI (KM12 colon): > 100 µM
TGI (NCI-H460 lung): > 100 µM
TGI (COLO 205 colon): > 100 µM
TGI (DU-145 prostate): > 100 µM
TGI (NCI-H23 lung): > 100 µM
TGI (ACHN renal): > 100 µM
TGI (HCC-2998 colon): > 100 µM
TGI (SW-620 colon): > 100 µM
TGI (SNB-19 CNS): > 100 µM
TGI (HS 578T breast): > 100 µM
TGI (MDA-MB-435): > 100 µM
TGI (UACC-257 melanoma): > 100 µM
TGI (MALME-3M melanoma): > 100 µM
TGI (786-0 renal): > 100 µM
TGI (MCF7 breast): 59.4 µM
TGI (EKVX NSCLC): 58.4 µM
TGI (NCI-H226 lung): > 100 µM
TGI (TK-10 renal): > 100 µM
TGI (HCT-15 colon): > 100 µM
TGI (HCT-116 colon): > 100 µM
TGI (CCRF-CEM leukemia): > 100 µM
TGI (MDA-MB-231 breast): > 100 µM
TGI (OVCAR-8 ovarian): > 100 µM
